From patent US6890923B2, “Compounds” (AstraZeneca AB, priority 2002, dated 2005) come the findings set out here.

With `CC(C)Cn1c(=O)n(C)c(=O)c2c(-c3ccsc3)c(Cc3ccccc3C(F)(F)F)sc21` [Example 6, 3-Methyl-1-(2-methylpropyl)-5-(3-thienyl)-6-[[2-(trifluoromethyl)phenyl]methyl]-thieno[2,3-d]pyrimidine-2,4(1H,3H)-dione], the melting point fell in the range of 113 to 114 °C. Next, `CC(C)Cn1c(=O)n(C)c(=O)c2c(CCC(=O)O)c(Cc3ccccc3C(F)(F)F)sc21` [Example 28, 1,2,3,4-Tetrahydro-3-methyl-1-(2-methylpropyl)-2,4-dioxo-6-[[2-(trifluoromethyl)phenyl]methyl]-thieno[2,3-d]pyrimidine-5-propanoic acid]: 165 to 167 °C.

In general, melting point refers to the temperature, or range, at which the solid turns liquid.
